Test [1] deals with T1, fibroblast growth factor-1 (FGF-1) (Homo sapiens, UniProt P05230). As to the kind of experiment: Inhibition of fibroblast mitogenesis induced by FGF-1 in Balb/c 3T3 fibroblasts. It counts as cell-based. Further details: host or cells: added to Balb/c 3T3 fibroblasts (mouse). The note with it: quiescent Balb/c 3T3 cultures; potassium salts, except 2-acetoxy-5-hydroxybenzene sulfonate as calcium salt. As to the method:
The evaluated compounds were used in the form of potassium salt, except in the first case in which calcium salt was used. The experiments were carried out as described in Fernandez-Tornero C et al. J Biol Chem, 2003.

The test system of a further test is Leishmania major. Nature of the test: Experimental infection with Leishmania major in a mouse model (paw thickness). It counts as in vivo, mice. The note with it: 200 mg/kg/day i.p. for 14 days from third week after infection, effect from the eighth week. An excerpt:
The vehicle group consisted of infected animals that received daily injections of saline (0.9% NaCl) during the same period as DHBS. Results are expressed as the mean±the standard deviation of the increases in size of the inoculated paw (right) compared to the non-inoculated paw (left) in mm obtained with a Vernier caliper each week from 0 to 10. ** indicates p<0.01 vs. the vehicle-treated group by a Student t-test. 6 animals were used for each group.
The vehicle group consisted of infected animals that received daily injections of saline (0.9% NaCl) from the moment of the infection, while the control group consisted of non-infected animals. Results are expressed as the mean±the standard deviation of the increases in size of the inoculated paw (right) compared to the non-inoculated paw (left) in mm obtained with a Vernier caliper each week from 0 to 9. * indicates p<0.05 vs. the vehicle group by a Student t-test. 7 animals were used for each group.
The vehicle group consisted of infected animals that received daily injections of saline (0.9% NaCl) from the third week after the infection. Results are expressed as the mean±the standard deviation of the increases in size of the inoculated paw (right) compared to the non-inoculated paw (left) in mm obtained with a Vernier caliper each week from 0 to 9. * indicates p<0.05 vs. the vehicle group by a Student t-test. 7 animals were used for each group.
This model is based in the massive inoculation of Leishmania promatigotes in the mouse paw pad. Under these conditions, the parasite induces a progressive inflammation correlated with the multiplication of parasites at the site of inoculation. BALB/c strain female mice that developed severe and uncontrolled injuries were used (Foote S J, Handman E. Brief Funct Genomic Proteomic, 2005). This model has been used in pharmacology to monitor the therapeutic capacity of new leishmanicide compounds and the preventive capacity of potential vaccines against leishmaniasis ((Nelson K G et al. Antimicrob Agents Chemother. 2006).
The animals were inoculated with 5×10^6 of L. major promastigotes (strain Hervás) in 50 μL of PBS into the plantar pad of the right back paw. As negative control of the infection, a group of mice inoculated with 50 μL of PBS was used. The sizes of the lesions were measured every 7 days until the animals were sacrificed (week 9) using a Vernier caliper. The thickness of the right back paw (infected) and the left back paw (uninfected) of all the animals was measured at the base of the fifth toe. The progression of the inflammation is represented as the difference in thickness between the infected and the non-infected paws. […]

In test [2] the target is T1, fibroblast growth factor-1 (FGF-1). Nature of the test: Co-crystallisation with FGF-1 (crystal diffraction of complexes). The note with it: for acetoxyl groups of the compound when bound to the protein: electron density contoured at 1σ; for binding site on FGF-1 in the crystal complex: reference: site of 2,5-dihydroxybenzene sulfonic acid, lysine 132. It counts as binding. An excerpt:
FIG. 24. 2-acetoxy-5-hydroxybenzenesulfonic acid co-crystallized with fibroblast growth factor-1. […] The compound occupies a place that is very close to that described occupied by 2,5-dihydroxybenzenesulfonic acid, the aromatic ring of which forms a […] bond with the N^ε group of lysine 132, which is marked in panel A as reference. […] In panels A and B, the protein surface is colored according to its electrostatic potential (light grey: negative charge; dark grey: positive charge; white: lack of charge).
FIG. 25. 5-acetoxy-2-hydroxybenzenesulfonic acid co-crystallized with fibroblast growth factor-1. […] The compound occupies a place that is very close to that described occupied by 2,5-dihydroxybenzenesulfonic acid, the aromatic ring of which forms a cation-π bond with the N^ε group of lysine 132, which is marked in panel A as reference. […] In panels A and B, the protein surface is colored according to its electrostatic potential (light grey: negative charge; dark grey: positive charge; white: lack of charge).
FIG. 26. 2,5-diacetoxybenzenesulfonic acid co-crystallized with fibroblast growth factor-1. […] The compound occupies a place that is very close to that described occupied by 2,5-dihydroxybenzenesulfonic acid, the aromatic ring of which forms a cation-π bond with the N^ε group of lysine 132, which is marked in panel A as reference. […] In panels A and B, the protein surface is colored according to its electrostatic potential (light grey: negative charge; dark grey: positive charge; white: lack of charge).
Based on the crystal diffraction of the FGF-1:2-acetoxy-5-hydroxybenzene sulfonic acid, FGF-1:5-acetoxy-2-hydroxybenzene sulfonic acid and FGF-1:2,5-diacetoxybenzene sulfonic acid complexes, the structures of the complexes were calculated and represented. FIGS. 24, 25 and 26, which show the surface of the dyed protein according to its electrostatic potential (light grey: negative charge; dark grey: positive charge; white: lack of charge), show the manner in which 2-acetoxy-5-hydroxybenzene sulfonic acid, 5-acetoxy-2-hydroxybenzene sulfonic acid and 2,5-diacetoxybenzene sulfonic acid interact, respectively, with FGF-1.

For the next test, the system named is rat C6 glioma cells. As to the kind of experiment: Proliferation of rat glioma C6 cells (crystal violet). It counts as cell-based. The note with it: 500 μM, 48 h. As to the method:
FIG. 23. […] 5A-2HBS and 2A-5HBS were administered or not (control) after seeding C6 cells in 24 well plates (10^4 per well) until they were fixed 48 hours later. Data are expressed as the mean±SEM of the percentage of absorbance at 595 nm obtained in control cultures, which is proportional to the number of cells stained with crystal violet. Data were obtained from 3 cultures for each treatment and 6 control cultures.
The cell line used was the C6 cell line and the experiment was carried out as described in examples 2 and 3. Once adhered, the cells were treated or not (controls) with (5A-2HBS) (500 μM) or (2A-5HBS) (500 μM) and they were allowed to proliferate for 48 h. After this time the glioma cell proliferation was evaluated by means of staining the fixed cells with crystal violet. The number of cells is proportional to the amount of retained dye, which was determined spectrophotometrically by measuring the absorbance at 595 nm once the dye was extracted from the cells.

Test [3] relates to human retinal endothelial cells (HREC). Nature of the test: Proliferation of human retinal endothelial cells (HREC, crystal violet). It counts as cell-based. The note with it: 72 h. As to the method: (§1) 2A-5HBS was administered or not administered (control) after seeding the HREC in 24-well plates (7.5×10^3 per well) until they were fixed after 72 hours. The data are expressed as the mean±SEM of the percentage of the absorbance at 595 nm obtained in the control cultures, which is proportional to the number of cells stained with crystal violet. The data were obtained from 6 cultures for each treatment in two separate experiments. The white bar represents the value of the control cells, whereas the gray bars show the value in the presence of 2A-5HBS (500 and 1000 μM). * indicates p<0.05, *** p<0.001 with respect to the control by means of a single-factor analysis of variance (ANOVA) followed by a Student-Newman-Keuls post-analysis.
as §1, with “5A-2HBS” for “2A-5HBS”, “striped” for “gray”, “***” for “*”, “indicates” for “indicates p<0.05, ***”
2,5-DHCME was administered or not administered (control) after seeding the HREC in 24-well plates (7.5×10^3 per well) until they were fixed after 72 hours. The data are expressed as the mean±SEM of the percentage of the absorbance at 595 nm obtained in the control cultures, which is proportional to the number of cells stained with crystal violet. The data were obtained from 6 cultures for each treatment in two separate experiments.
Primary cultures of human retinal endothelial cells (HREC) were used. Cells were obtained from Cell Systems (Virginia, USA) and subcultured with CSC complete medium (Cell Systems). Cells at 2 to 5 passages were seeded in 24-well plates at 7,500 cells/well density and, once attached, the cells were treated o not treated (controls) with 2A-5HBS (500 and 1000 μM) or 5A-2HBS (500 and 1000 μM) and they were allowed to proliferate for 72 hours, with daily medium changes. After that, the proliferation of HREC was evaluated by staining the fixed cells with crystal violet. The number of cells is proportional to the amount of retained dye, which was spectrophotometrically determined by measuring absorbance at 595 nm after removing the dye from the cells. Data are expressed as the percentage of absorbance at 595 nm obtained in control conditions. Data were obtained from two different experiments performed in triplicate.
Primary cultures of human retinal endothelial cells (HREC) were used. Cells were obtained from Cell Systems (Virginia, USA) and subcultured with CSC complete medium (Cell Systems). […] After that, the proliferation of HREC was evaluated by staining the fixed cells with crystal violet. The number of cells is proportional to the amount of retained dye, which was spectrophotometrically determined by measuring absorbance at 595 nm after removing the dye from the cells. Data are expressed as the percentage of absorbance at 595 nm obtained in control conditions. […]

The test system of test [4] is corneal neovascularization. Nature of the test: Topical treatment of human corneal neovascularization. It counts as in vivo. The note with it: 5% solution of potassium salt, 4 drops a day topical, 19 days, one patient. The source says:
Photographs showing the presence of corneal neovascularization in a patient before being treated (A) and after 19 days of topical application of a solution containing 5% of potassium 2,5-dihydroxybenzoate (B). The treatment consisted of daily topical application of 4 drops of such solution.
4 drops a day were topically applied in a patient that presented a corneal neovascularization process refractory to any type of previous treatment.

T1 sequence (P05230 whole entry, species assumed): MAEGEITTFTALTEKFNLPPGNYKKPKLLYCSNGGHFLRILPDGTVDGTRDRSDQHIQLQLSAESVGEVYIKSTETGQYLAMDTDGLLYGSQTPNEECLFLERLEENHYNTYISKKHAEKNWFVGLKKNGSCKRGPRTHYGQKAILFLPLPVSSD

`O=S(=O)([O-])c1cc(O)ccc1O.[K+]` [potassium 2,5-dihydroxybenzenesulfonate]: in test [1], the FGF-1 induced mitogenesis result was “Inhibition”. In addition, the figures for the “increase of paw thickness / size of the lesion (infected vs non-infected paw)” value in the test with Leishmania major and with Leishmania major (listed as potassium 2,5-dihydroxybenzene sulfonate) were “Reduction in the size of the lesion” and “significant reduction in the increase of paw thickness”, respectively.

On to `CC(=O)Oc1ccc(O)cc1S(=O)(=O)[O-].[K+]` [2A-5HBS, potassium 2-acetoxy-5-hydroxybenzene sulfonate], for which, in test [2], the “acetoxyl groups of the compound when bound to the protein” value is reported as “conserve the acetoxyl groups” and the “binding site on FGF-1 in the crystal complex” value is recorded as “a site that is very close to the one that has been described occupied by 2,5-dihydroxybenzene sulfonic acid”. Moreover, the “rat glioma cell proliferation” value with rat C6 glioma cells is reported as “inhibition”. The HREC proliferation entry in test [3] (500 μM) is “significant inhibition”. Also, the HREC proliferation result in test [3] (1000 μM) is “significant inhibition”.

In the case of `COC(=O)C=Cc1cc(O)ccc1O` [2,5-DHCME, 2,5-dihydroxycinnamic acid methyl ester], the HREC proliferation result in test [3] (50 μM) and in test [3] (100 μM) was “significant inhibition” in each case.

Consider `O=C([O-])c1cc(O)ccc1O.[K+]` [2,5-dihydroxybenzoate, potassium 2,5-dihydroxybenzoate], for which the “degree of corneal vascularization” value was “remarkable reduction in the degree of corneal vascularization” in test [4] and “noticeable reduction in the degree of corneal vascularization” in test [4] (listed as 2,5-dihydroxybenzoic acid).

On to `CC(=O)Oc1ccc(O)c(S(=O)(=O)[O-])c1.[K+]` [5A-2HBS, potassium 5-acetoxy-2-hydroxybenzenesulfonate], for which, in test [2], the “acetoxyl groups of the compound when bound to the protein” value is recorded as “conserve the acetoxyl groups” and the “binding site on FGF-1 in the crystal complex” value is “a site that is very close to the one that has been described occupied by 2,5-dihydroxybenzene sulfonic acid”. The “rat glioma cell proliferation” value in the test with rat C6 glioma cells is reported as “inhibition”. The FGF-1 induced mitogenesis entry in test [1] was “Inhibition”.

For “calcium 2-acetoxy-5-hydroxybenzenesulfonate”, the FGF-1 induced mitogenesis entry in test [1] is “Inhibition”.
